# pIC50: −log10 of the molar value.
# Biological target: PD-1/PD-L1 (Homo sapiens, UniProt Q9NZQ7)
# Assay: TR-FRET PD-1/PD-L1 binding inhibition at the molecular level (free proteins)
# Settings: Tag1-PD-L1 and Tag2-PD-1 proteins, twelve concentrations from 200 nM, 2 hours at room temperature, read-out: FRET assay (IC50)
# Procedure, shortened: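 HTRF read-out at 665/620 nm after 2 h at room temperature. Detection used anti-Tag1 Eu cryptate plus anti-Tag2 XL665 antibodies. Tagged PD-L1 and PD-1 proteins were pre-mixed with compound across twelve […] 1:2 dilutions starting at 200 nM.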
# Chain of PD-1/PD-L1 (Q9NZQ7 19-238 limits assumed): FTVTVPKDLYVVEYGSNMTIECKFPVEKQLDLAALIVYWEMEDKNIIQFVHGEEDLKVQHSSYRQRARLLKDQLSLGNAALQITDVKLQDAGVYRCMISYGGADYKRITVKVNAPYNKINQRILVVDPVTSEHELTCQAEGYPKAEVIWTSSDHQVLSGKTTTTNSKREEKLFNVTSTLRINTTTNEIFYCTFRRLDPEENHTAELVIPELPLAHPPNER
row,pIC50,SMILES
1,> 8.00,"COc1cc(-c2cccc(-c3cccc(NC(=O)c4cc5n(n4)CCC[C@H]5NCC(=O)O)c3Cl)c2Cl)cc(F)c1CN1CC[C@@H](O)C1 [Compound 248, 2-(((R)-2-((2,2'-dichloro-3""-fluoro-4""-(((R)-3-hydroxypyrrolidin-1-yl)methyl)-5""-methoxy-[1,1':3',1""-terphenyl]-3-yl)carbamoyl)-4,5,6,7-tetrahydropyrazolo[1,5-a]pyridin-4-yl)amino)acetic acid]"
2,7.00 to 8.00,"COc1cc(-c2cccc(-c3cccc(NC(=O)c4cc5n(n4)CCC[C@@H]5NCC(=O)O)c3Cl)c2Cl)cc(F)c1CNC[C@@H]1CCC(=O)N1 [Compound 249, 2-(((S)-2-((2,2'-dichloro-3""-fluoro-5""-methoxy-4""-(((((S)-5-oxopyrrolidin-2-yl)methyl)amino)methyl)-[1,1':3',1""-terphenyl]-3-yl)carbamoyl)-4,5,6,7-tetrahydropyrazolo[1,5-a]pyridin-4-yl)amino)acetic acid]"
3,7.00 to 8.00,"COc1cc(-c2cccc(-c3cccc(NC(=O)c4cc5n(n4)CCC[C@H]5NCC(=O)O)c3Cl)c2Cl)cc(F)c1CNC[C@@H]1CCC(=O)N1 [Compound 250, 2-(((R)-2-((2,2'-dichloro-3""-fluoro-5""-methoxy-4""-(((((S)-5-oxopyrrolidin-2-yl)methyl)amino)methyl)-[1,1':3',1 ""-terphenyl]-3-yl)carbamoyl)-4,5,6,7-tetrahydropyrazolo[1,5-a]pyridin-4-yl)amino)acetic acid]"
4,> 8.00,"Cc1c(NC(=O)c2cc3n(n2)CCC[C@@H]3NCCO)cccc1-c1cccc(NC(=O)c2cc3n(n2)CCC[C@@H]3NCCO)c1C [Compound 253, (4S,4'S)-N,N'-(2,2'-dimethyl-[1,1'-biphenyl]-3,3'-diyl)bis(4-((2-hydroxyethyl)amino)-4,5,6,7-tetrahydropyrazolo[1,5-a]pyridine-2-carboxamide)]"
5,7.00 to 8.00,"Cc1nc(Nc2cccc(-c3cccc(NC(=O)c4cc5n(n4)CCC[C@@H]5N4CCC(C(=O)O)CC4)c3Cl)c2Cl)c2ncccc2n1 [Compound 254, (S)-1-(2-((2,2'-dichloro-3'-((2-methylpyrido[3,2-d]pyrimidin-4-yl)amino)-[1,1'-biphenyl]-3-yl)carbamoyl)-4,5,6,7-tetrahydropyrazolo[1,5-a]pyridin-4-yl)piperidine-4-carboxylic acid]"
6,7.00 to 8.00,"Cc1nc(Nc2cccc(-c3cccc(NC(=O)c4cc5n(n4)CCC[C@H]5N4CCC(C(=O)O)CC4)c3Cl)c2Cl)c2ncccc2n1 [Compound 255, (R)-1-(2-((2,2'-dichloro-3'-((2-methylpyrido[3,2-d]pyrimidin-4-yl)amino)-[1,1'-biphenyl]-3-yl)carbamoyl)-4,5,6,7-tetrahydropyrazolo[1,5-a]pyridin-4-yl)piperidine-4-carboxylic acid]"
7,7.00 to 8.00,"O=C(Nc1cccc(-c2cccc(Nc3nccc4nccnc34)c2Cl)c1Cl)c1cc2n(n1)CCC[C@H]2N1CCC(C(=O)O)CC1 [Compound 256, (R)-1-(2-((2,2'-dichloro-3'-(pyrido[3,4-b]pyrazin-5-ylamino)-[1,1'-biphenyl]-3-yl)carbamoyl)-4,5,6,7-tetrahydropyrazolo[1,5-a]pyridin-4-yl)piperidine-4-carboxylic acid]"
8,7.00 to 8.00,"O=C(Nc1cccc(-c2cccc(Nc3nccc4nccnc34)c2Cl)c1Cl)c1cc2n(n1)CCC[C@@H]2N1CCC(C(=O)O)CC1 [Compound 257, (S)-1-(2-((2,2'-dichloro-3'-(pyrido[3,4-b]pyrazin-5-ylamino)-[1,1'-biphenyl]-3-yl)carbamoyl)-4,5,6,7-tetrahydropyrazolo[1,5-a]pyridin-4-yl)piperidine-4-carboxylic acid]"
9,7.00 to 8.00,"CC(C)(N[C@H]1CCCn2nc(C(=O)Nc3cccc(-c4cccc(Nc5nc(C(F)F)nc6cc(CN7CC[C@@H](O)C7)cnc56)c4Cl)c3Cl)cc21)C(=O)O [Compound 258, 2-(((S)-2-((2,2'-dichloro-3'-((2-(difluoromethyl)-7-(((R)-3-hydroxypyrrolidin-1-yl)methyl)pyrido[3,2-d]pyrimidin-4-yl)amino)-[1,1'-biphenyl]-3-yl)carbamoyl)-4,5,6,7-tetrahydropyrazolo[1,5-a]pyridin-4-yl)amino)-2-methylpropanoic acid]"
10,7.00 to 8.00,"CC(C)(N[C@@H]1CCCn2nc(C(=O)Nc3cccc(-c4cccc(Nc5nc(C(F)F)nc6cc(CN7CC[C@@H](O)C7)cnc56)c4Cl)c3Cl)cc21)C(=O)O [Compound 259, 2-(((R)-2-((2,2'-dichloro-3'-((2-(difluoromethyl)-7-(((R)-3-hydroxypyrrolidin-1-yl)methyl)pyrido[3,2-d]pyrimidin-4-yl)amino)-[1,1'-biphenyl]-3-yl)carbamoyl)-4,5,6,7-tetrahydropyrazolo[1,5-a]pyridin-4-yl)amino)-2-methylpropanoic acid]"
11,7.00 to 8.00,"CC(C)(N[C@@H]1CCCn2nc(C(=O)Nc3cccc(-c4cccc(Nc5nccc6nccnc56)c4Cl)c3Cl)cc21)C(=O)O [Compound 259-1, (R)-2-((2-((2,2'-dichloro-3'-(pyrido[3,4-b]pyrazin-5-ylamino)-[1,1'-biphenyl]-3-yl)carbamoyl)-4,5,6,7-tetrahydropyrazolo[1,5-a]pyridin-4-yl)amino)-2-methylpropanoic acid]"
12,7.00 to 8.00,"CC(C)(N[C@H]1CCCn2nc(C(=O)Nc3cccc(-c4cccc(Nc5nccc6nccnc56)c4Cl)c3Cl)cc21)C(=O)O [Compound 260, (S)-2-((2-((2,2'-dichloro-3'-(pyrido[3,4-b]pyrazin-5-ylamino)-[1,1'-biphenyl]-3-yl)carbamoyl)-4,5,6,7-tetrahydropyrazolo[1,5-a]pyridin-4-yl)amino)-2-methylpropanoic acid]"
13,> 8.00,"O=C(Nc1cccc(-c2cccc(Nc3nc(C(F)F)nc4cc(CN5CC[C@@H](O)C5)cnc34)c2Cl)c1Cl)c1cc2n(n1)CCC[C@@H]2N1CC(C(=O)O)C1 [Compound 261, 1-((S)-2-((2,2'-dichloro-3'-((2-(difluoromethyl)-7-(((R)-3-hydroxypyrrolidin-1-yl)methyl)pyrido[3,2-d]pyrimidin-4-yl)amino)-[1,1'-biphenyl]-3-yl)carbamoyl)-4,5,6,7-tetrahydropyrazolo[1,5-a]pyridin-4-yl)azetidine-3-carboxylic acid]"
14,> 8.00,"O=C(Nc1cccc(-c2cccc(Nc3nccc4nccnc34)c2Cl)c1Cl)c1cc2n(n1)CCC[C@H]2N1CC(C(=O)O)C1 [Compound 263, (R)-1-(2-((2,2'-dichloro-3'-(pyrido[3,4-b]pyrazin-5-ylamino)-[1,1'-biphenyl]-3-yl)carbamoyl)-4,5,6,7-tetrahydropyrazolo[1,5-a]pyridin-4-yl)azetidine-3-carboxylic acid]"
15,> 8.00,"O=C(Nc1cccc(-c2cccc(Nc3nccc4nccnc34)c2Cl)c1Cl)c1cc2n(n1)CCC[C@@H]2N1CC(C(=O)O)C1 [Compound 264, (S)-1-(2-((2,2'-dichloro-3'-(pyrido[3,4-b]pyrazin-5-ylamino)-[1,1'-biphenyl]-3-yl)carbamoyl)-4,5,6,7-tetrahydropyrazolo[1,5-a]pyridin-4-yl)azetidine-3-carboxylic acid]"
16,> 8.00,"Cc1c(NC(=O)c2ccc(CN3CC[C@@H](O)C3)cn2)cccc1-c1cccc(NC(=O)c2cc3n(n2)CCC[C@@H]3N2CC(C(=O)O)C2)c1C [Compound 265, 1-((S)-2-((3'-(5-(((R)-3-hydroxypyrrolidin-1-yl)methyl)picolinamido)-2,2'-dimethyl-[1,1'-biphenyl]-3-yl)carbamoyl)-4,5,6,7-tetrahydropyrazolo[1,5-a]pyridin-4-yl)azetidine-3-carboxylic acid]"
17,> 8.00,"Cc1c(NC(=O)c2cc3n(n2)CCC[C@@H]3N2CCC(C(=O)O)CC2)cccc1-c1cccc(Nc2nc(C(F)F)nc3cc(CN4CC[C@@H](O)C4)cnc23)c1C [Compound 267, 1-((S)-2-((3'-((2-(difluoromethyl)-7-(((R)-3-hydroxypyrrolidin-1-yl)methyl)pyrido[3,2-d]pyrimidin-4-yl)amino)-2,2'-dimethyl-[1,1'-biphenyl]-3-yl)carbamoyl)-4,5,6,7-tetrahydropyrazolo[1,5-a]pyridin-4-yl)piperidine-4-carboxylic acid]"
18,7.00 to 8.00,"Cc1c(NC(=O)c2cc3n(n2)CCC[C@H]3N2CCC(C(=O)O)CC2)cccc1-c1cccc(Nc2nc(C(F)F)nc3cc(CN4CC[C@@H](O)C4)cnc23)c1C [Compound 268, 1-((R)-2-((3'-((2-(difluoromethyl)-7-(((R)-3-hydroxypyrrolidin-1-yl)methyl)pyrido[3,2-d]pyrimidin-4-yl)amino)-2,2'-dimethyl-[1,1'-biphenyl]-3-yl)carbamoyl)-4,5,6,7-tetrahydropyrazolo[1,5-a]pyridin-4-yl)piperidine-4-carboxylic acid]"
19,7.00 to 8.00,"O=C(Nc1cccc(-c2cccc(Nc3nc(C(F)F)nc4cc(CN5CC(F)C5)cnc34)c2Cl)c1Cl)c1cc2n(n1)CCC[C@@H]2N1CCC(O)CC1 [Compound 269, (S)-N-(2,2'-dichloro-3'-((2-(difluoromethyl)-7-((3-fluoroazetidin-1-yl)methyl)pyrido[3,2-d]pyrimidin-4-yl)amino)-[1,1'-biphenyl]-3-yl)-4-(4-hydroxypiperidin-1-yl)-4,5,6,7-tetrahydropyrazolo[1,5-a]pyridine-2-carboxamide]"
20,7.00 to 8.00,"O=C(Nc1cccc(-c2cccc(Nc3nc(C(F)F)nc4cc(CN5CC(F)C5)cnc34)c2Cl)c1Cl)c1cc2n(n1)CCC[C@H]2N1CCC(O)CC1 [Compound 270, (R)-N-(2,2'-dichloro-3'-((2-(difluoromethyl)-7-((3-fluoroazetidin-1-yl)methyl)pyrido[3,2-d]pyrimidin-4-yl)amino)-[1,1'-biphenyl]-3-yl)-4-(4-hydroxypiperidin-1-yl)-4,5,6,7-tetrahydropyrazolo[1,5-a]pyridine-2-carboxamide]"
